Our source for the Ki values is BindingDB's records for doi:10.1021/jm3012917 (Philipps University Marburg, 2013).

This test concerns the target Coagulation factor VII (Homo sapiens) (UniProt P08709). Put plainly: Inhibition of human FVIIa.

Some results are limits rather than exact numbers.

Sequence of Coagulation factor VII (Homo sapiens) (P08709 whole entry, looked up): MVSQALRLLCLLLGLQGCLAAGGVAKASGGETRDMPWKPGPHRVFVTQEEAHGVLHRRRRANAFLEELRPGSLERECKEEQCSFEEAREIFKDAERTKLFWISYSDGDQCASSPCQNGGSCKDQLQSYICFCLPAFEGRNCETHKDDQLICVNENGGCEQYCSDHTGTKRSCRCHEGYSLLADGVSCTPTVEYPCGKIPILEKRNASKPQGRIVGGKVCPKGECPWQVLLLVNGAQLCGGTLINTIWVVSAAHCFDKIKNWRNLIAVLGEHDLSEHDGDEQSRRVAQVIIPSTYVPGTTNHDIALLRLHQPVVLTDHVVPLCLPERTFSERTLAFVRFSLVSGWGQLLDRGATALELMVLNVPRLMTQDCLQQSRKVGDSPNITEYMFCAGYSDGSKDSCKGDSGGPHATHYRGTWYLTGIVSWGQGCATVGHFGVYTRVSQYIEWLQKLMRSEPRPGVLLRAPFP

In general, Ki refers to a dissociation constant, usually derived from enzyme kinetics or from competition with a known ligand. Read a low Ki as tighter binding. As to `N=C(N)c1ccc(CNC(=O)[C@@H]2Cc3ccc(cc3)NC(=O)CN3CCN(CC3)CC(=O)Nc3ccc(cc3)C[C@@H](NS(=O)(=O)Cc3ccccc3)C(=O)N2)cc1`, the Ki is above 30 µM.

Consider `N=C(N)c1ccc(CNC(=O)[C@@H]2Cc3ccc(cc3)NC(=O)CCN3CCN(CCC(=O)Nc4ccc(cc4)C[C@@H](NS(=O)(=O)Cc4ccccc4)C(=O)N2)CC3)cc1`, for which the inhibitory constant (Ki) was above 50 µM.
